Experimental data taken from patent US8440645B2, “Ceramide production promoter” (Kao Corporation, priority 2008, dated 2013).
Counter-ions that a name gives are not always drawn.

What was measured:
[1] = tested on: Normal human epidermal keratinocytes (NHEK(F)); test: Ceramide production promotion test (Test Example 3); format: cell-based; conditions: 5 mM solution added in an amount of 1%, 3 days culture
Procedure: Normal human epidermal keratinocytes (NHEK(F)) were seeded into an EpiLife-KG2 (KURABO INDUSTRIES LTD.) 6-well Plate and cultured until the cells became confluent. […] Culture was performed for 3 days, and the cells in each well were separately collected. Lipids were extracted from the collected cells by a Bligh and Dyer method. The extracts were dried with nitrogen, and the residues were redissolved in chloroform and methanol, to thereby prepare lipid samples. Note that the amounts of proteins were determined by the BCA method. The extracted lipids were subjected to horizontal development twice by using thin layer chromatography (TLC) and chloroform:methanol:acetic acid=190:9:1. The resultant were sprayed with a copper sulfate solution and heated on a hot plate, to thereby detect ceramide. Thereafter, the resultant values were divided by respective protein amounts to calculate amounts of ceramide.

[2] = tested on: Normal human epidermal keratinocytes (NHEK(F)); test: Ceramide production promotion test (Test Example 1); format: cell-based; conditions: 3 days culture, control (10% ethanol) defined as 1
Procedure: Normal human epidermal keratinocytes (NHEK(F)) were seeded into an EpiLife-KG2 (KURABO INDUSTRIES LTD.) 6-well Plate and cultured until the cells became confluent. Thereafter, in replacement of EpiLife-KG2 (containing no proliferation addition factor), Compound 1 (5 mM) and Compound 2 (1 mM) prepared in Production Examples or a control solution (10% ethanol) was added thereto in an amount of 1%. Culture was performed for 3 days, and the cells in each well were separately collected.
Lipids were extracted from the collected cells by Bligh and Dyer method. The extracts were dried with nitrogen, and the residues were redissolved in chloroform and methanol, to thereby prepare lipid samples. Note that the amounts of proteins were determined by a BCA method.
The extracted lipids were subjected to horizontal development twice by using thin layer chromatography (TLC) and chloroform:methanol:acetic acid=190:9:1. The resultant was sprayed with a copper sulfate solution and heated on a hot plate, to thereby detect ceramide. Thereafter, the resultant values were divided by respective protein amounts to calculate amounts of ceramide. […] The numerical values shown in the table are relative values when the amount of ceramide in the control is defined as 1.

[3] = tested on: human horny layer; test: Test on effect of improving moisture content in human horny layer (Test Example 2); format: in vivo; conditions: 1% Compound 1 solution applied to cheek twice a day, five days a week, 4 weeks; ten men; P<0.1 t-test
Procedure: Ten men (25 to 40-year-old: mean age 30.5)
A solution containing 1% Compound 1 and a placebo solution containing only a solvent were used as application samples. The solvent used was 95.0% ethanol:1,3-BG:purified water=20:10:70.
The samples were applied twice a day and five days a week. The amount of each sample per application was set to two drops (about 100 μl) from an eye drop bottle.
The test was performed by applying the sample containing 1% Compound 1 to one side of the cheek and the placebo solution to the other side for 4 weeks, followed by measuring moisture contents in the horny layer using a Corneometer. The measurement was performed before the application and after the 4-week application at the same regions on the cheek, and the result of the 1% Compound 1-containing sample side was compared with that of the placebo side.

[4] = control (10% ethanol) defined as 1
[5] = control (50% ethanol) defined as 1

| Compound | Amount of ceramide (relative value) [1, 4] | other results |
| --- | --- | --- |
| 1-Isostearylglycerol-3-phosphate monoarginine salt [Compound 7] | 18.9 |  |
| CCCCCCCCCCCCCCCCCCOCC(O)COP(=O)([O-])[O-].[Na+].[Na+] (centres unmarked) [Compound 5, 1-Octadecylglycerol-3-phosphate disodium salt] |  | Amount of ceramide (relative value) [1, 5]: 2.6 |
| CCCCCCCCCC(CCCCCCC)COCC(O)COP(=O)(O)O (centres unmarked) [Compound 6, 1-(2-Heptylundecyl)glycerol-3-phosphate monoarginine salt] | 4.0 |  |
| CCCCCCCCCCCCCCOCC(O)COP(=O)(O)O (centres unmarked) [Compound 4, 1-Tetradecylglycerol-3-phosphate monoarginine salt] | 4.3 |  |
| CCCCOCC(COCCCCCCCCCCCCCCCC(C)C)OP(=O)([O-])[O-].[Na+].[Na+] (centres unmarked) [Compound 2, 1-isostearyl-3-butylglycerol-2-phosphate sodium salt] |  | Amount of ceramide (relative value) ([2]; 1 mM solution added in an amount of 1%): 1.5 |
| CCCCCCCCCCC(CCCCCCCC)COCC(O)COP(=O)(O)O (centres unmarked) [Compound 9, 1-(2-Octyldodecyl)glycerol-3-phosphate monoarginine salt] | 4.1 |  |
| CCCCCC(C)CCCCCCCCCCCOCC(O)COP(=O)([O-])[O-].[K+].[K+] (centres unmarked) [Compound 8, 1-(12-Methylheptadecyl)glycerol-3-phosphate dipotassium salt] | 10.4 |  |
| monoalkyl (having an average alkyl chain length of C13) phosphate potassium salt [Comparative Compound 1, reference compound] |  | Amount of ceramide (relative value) [1, 5]: 0.6 |
| CCCCCCCCCCCCOCC(O)COP(=O)([O-])[O-].[Na+].[Na+] (centres unmarked) [Compound 3, 1-Dodecylglycerol-3-phosphate disodium salt] | 3.1 |  |
| 1-n-tetradecyl-3-ethylglycerol-2-phosphate arginine salt [Compound 1] |  | Amount of ceramide (relative value) ([2]; 5 mM solution added in an amount of 1%): 3.3; Moisture content in the horny layer (Corneometer) compared with placebo-applied side [3]: increase |
